{
  "source": "patent US20090130229A1",
  "about": "“Antitumor uses of compound” (Cell Therapeutics, Inc., priority 2002, published 2009)",
  "key": {"[1]": {"tested_on": "NIH3T3^MEN2A(C634R) cells", "test": "Reversion of transformed morphologic phenotype of NIH3T3 MEN2A(C634R) transfectants", "assay_type": "cell-based, murine", "conditions": "6 μM, 24 h, phase-contrast microscope", "description": "FIG. 1. Effects of Cpd 1 on NIH3T3^MEN2A(C634R) transfectants expressing exogenous RET/MEN2A(C634R). […] Cells were exposed to 6 μM Cpd1 for 24 h and then photographed under a phase-contrast microscope (original magnification ×100). B) Antiproliferative effect. NIH3T3^MEN2A(C634R) cells and the parental NIH3T3 cells were treated with increasing concentrations of the drug for 72 h and then counted with a Coulter Counter. […] C) Inhibition of Ret/MEN2A(C634R) autophosphorylation and expression. Cells were treated with solvent (−) or 10 μM Cpd1 (+), for the indicated times. Whole cell-lysates were prepared and subjected to SDS-PAGE and Western blotting with anti-pTyr antibody. After stripping, the filter was reblotted with anti-Ret antibody. Arrows indicate the partial and fully glycosilated forms of the Ret/MEN2A receptor.\nThe following human medullary thyroid carcinoma (MTC) cell lines were used in this study. The TT cell line derived from a MEN2A-associated MTC characterized by expression of the RET oncogene carrying the mutation C634W. The MZ-CRC-1 cell line derived from MEN2B-associated MTC characterized by expression of the RET oncogene carrying the mutation M918T. […]"}, "Ret/MEN2B(M918T)": {"target": "T1, Ret/MEN2B(M918T) (Homo sapiens, UniProt P07949, M918T)", "T1 construct": "endogenous in cells; host or cells: MZ-CRC-1 (human medullary thyroid carcinoma)", "T1 sequence (P07949 29-1114 M918T)": "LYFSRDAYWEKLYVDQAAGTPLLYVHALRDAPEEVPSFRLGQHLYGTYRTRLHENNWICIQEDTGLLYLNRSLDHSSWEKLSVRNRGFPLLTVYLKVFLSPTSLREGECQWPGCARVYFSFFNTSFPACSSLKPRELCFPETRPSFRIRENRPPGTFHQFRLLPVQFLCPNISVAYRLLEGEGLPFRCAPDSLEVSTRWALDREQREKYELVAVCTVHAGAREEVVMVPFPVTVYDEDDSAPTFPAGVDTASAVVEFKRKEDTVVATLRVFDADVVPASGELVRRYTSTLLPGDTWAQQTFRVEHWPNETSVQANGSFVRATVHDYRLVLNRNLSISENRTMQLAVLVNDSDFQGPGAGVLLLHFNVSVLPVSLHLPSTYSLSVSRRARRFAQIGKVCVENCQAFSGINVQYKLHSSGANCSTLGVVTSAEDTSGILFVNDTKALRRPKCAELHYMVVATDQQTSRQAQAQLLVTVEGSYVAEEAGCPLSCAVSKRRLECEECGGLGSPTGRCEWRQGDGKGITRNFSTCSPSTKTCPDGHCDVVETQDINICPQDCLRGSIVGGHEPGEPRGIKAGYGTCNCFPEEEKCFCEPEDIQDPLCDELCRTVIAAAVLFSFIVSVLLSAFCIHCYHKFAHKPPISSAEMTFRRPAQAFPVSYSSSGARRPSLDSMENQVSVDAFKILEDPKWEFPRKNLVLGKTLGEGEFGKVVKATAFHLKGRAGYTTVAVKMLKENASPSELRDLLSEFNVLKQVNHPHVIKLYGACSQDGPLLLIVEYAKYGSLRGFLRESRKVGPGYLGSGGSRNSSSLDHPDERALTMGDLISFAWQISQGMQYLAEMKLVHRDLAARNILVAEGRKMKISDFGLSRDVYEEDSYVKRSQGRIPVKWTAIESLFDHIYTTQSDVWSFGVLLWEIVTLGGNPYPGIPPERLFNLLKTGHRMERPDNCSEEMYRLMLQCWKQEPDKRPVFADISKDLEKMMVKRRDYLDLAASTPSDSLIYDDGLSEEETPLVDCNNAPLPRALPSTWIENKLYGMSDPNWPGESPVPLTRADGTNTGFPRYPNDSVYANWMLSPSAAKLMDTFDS", "test": "Ret autophosphorylation and expression in MZ-CRC-1 cells (Western blotting)", "assay_type": "cell-based", "conditions": "24 h", "description": "FIG. 2. Effects of Cpd1 on human MTC cell lines harboring MEN2-associated RET mutants. A) Inhibition of Ret autophosphorylation. TT and MZ-CRC-1 cells, expressing respectively RET/MEN2A(C634W) and RET/MEN2B(M918T), were treated with the indicated concentrations of Cpd1, for 24 h. Control cells (C) received the solvent. Whole cell extracts were processed for Western blotting and probed with anti-pTyr and anti-Ret antibodies. […] B) Antiproliferative effect. TT and MZ-CRC-1 cells were treated with increasing concentrations of Cpd 1 for 7 days and then counted with a Coulter Counter.\nThe following human medullary thyroid carcinoma (MTC) cell lines were used in this study. The TT cell line derived from a MEN2A-associated MTC characterized by expression of the RET oncogene carrying the mutation C634W. […]\nFor whole-cell extract preparation, cells were lysed in sodium dodecyl sulfate (SDS) sample buffer (62.5 mM Tris-HCl (pH 6.8), 2% SDS) with 1 mM PMSF, 10 μg/ml pepstatin, 12.5 μg/ml leupeptin, 100 KIU aprotinin, 1 mM sodium orthovanadate, 1 mM sodium molybdate. Protein concentration was determined in appropriately diluted aliquots by the bicinchionic acid (BCA) method (Pierce, Rockford, Ill.), then samples were adjusted to a final concentration of 10% glycerol, 5% β-mercaptoethanol, 0.001% bromophenol blue. […]"}, "Met": {"target": "T2, Met (Homo sapiens, UniProt P08581)", "T2 construct": "endogenous in cells; host or cells: TPC-1 (human papillary thyroid carcinoma)", "T2 sequence (P08581 25-1390)": "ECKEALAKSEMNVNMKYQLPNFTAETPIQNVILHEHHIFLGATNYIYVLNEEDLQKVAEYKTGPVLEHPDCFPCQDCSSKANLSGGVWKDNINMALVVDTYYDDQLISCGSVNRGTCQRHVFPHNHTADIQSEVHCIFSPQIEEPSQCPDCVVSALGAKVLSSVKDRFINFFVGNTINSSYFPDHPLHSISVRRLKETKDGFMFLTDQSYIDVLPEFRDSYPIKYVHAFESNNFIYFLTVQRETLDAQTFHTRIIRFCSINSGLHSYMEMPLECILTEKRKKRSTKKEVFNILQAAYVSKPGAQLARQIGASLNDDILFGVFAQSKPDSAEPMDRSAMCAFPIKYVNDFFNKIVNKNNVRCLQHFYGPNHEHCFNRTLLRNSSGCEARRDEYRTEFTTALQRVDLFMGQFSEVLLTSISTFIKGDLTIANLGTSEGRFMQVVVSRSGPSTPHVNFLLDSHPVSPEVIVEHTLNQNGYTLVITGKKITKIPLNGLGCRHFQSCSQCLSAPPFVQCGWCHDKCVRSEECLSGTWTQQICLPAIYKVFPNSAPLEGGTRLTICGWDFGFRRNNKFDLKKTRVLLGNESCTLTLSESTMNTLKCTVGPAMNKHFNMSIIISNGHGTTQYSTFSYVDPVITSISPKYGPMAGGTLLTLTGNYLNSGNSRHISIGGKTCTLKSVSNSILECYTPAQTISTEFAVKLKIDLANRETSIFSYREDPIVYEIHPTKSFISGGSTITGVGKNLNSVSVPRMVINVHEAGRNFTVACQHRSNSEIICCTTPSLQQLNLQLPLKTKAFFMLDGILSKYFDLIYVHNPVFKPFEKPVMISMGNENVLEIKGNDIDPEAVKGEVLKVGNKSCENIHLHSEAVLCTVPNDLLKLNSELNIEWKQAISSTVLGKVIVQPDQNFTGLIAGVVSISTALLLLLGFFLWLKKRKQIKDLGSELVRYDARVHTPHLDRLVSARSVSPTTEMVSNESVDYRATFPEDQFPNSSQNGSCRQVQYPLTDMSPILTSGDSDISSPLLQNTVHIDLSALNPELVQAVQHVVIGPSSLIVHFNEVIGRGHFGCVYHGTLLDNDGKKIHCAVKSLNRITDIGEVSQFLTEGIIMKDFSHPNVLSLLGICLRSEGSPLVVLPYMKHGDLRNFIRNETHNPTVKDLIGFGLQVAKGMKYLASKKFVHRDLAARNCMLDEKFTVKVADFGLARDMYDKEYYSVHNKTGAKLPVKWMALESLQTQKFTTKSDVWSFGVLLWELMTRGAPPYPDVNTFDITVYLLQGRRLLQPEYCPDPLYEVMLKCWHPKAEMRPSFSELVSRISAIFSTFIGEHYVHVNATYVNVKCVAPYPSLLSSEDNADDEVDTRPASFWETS", "test": "Met autophosphorylation and expression in TPC-1 cells (IP/Western blotting)", "assay_type": "cell-based", "description": "FIG. 4. Inhibition of Met autophosphorylation and expression in human papillary thyroid carcinoma cells (TPC-1) treated with Cpd1. A): TPC-1 cells were exposed to solvent (−) or the indicated concentrations of Cpd 1 for 72 h. Equal amounts of protein were used for immunoprecipitation (IP) with anti-Met antibody or for the preparation of whole cell lysates (WCL). Immunoprecipitated proteins and WCLs were separated by SDS-PAGE, transferred to nitrocellulose membranes, and subjected to Western blotting with anti-pTyr or anti-Met antibodies. B): Cells were treated as in A. Cell extracts were immunoprecipitated with anti-pTyr antibody and probed with anti-Met antibody. C): Cells were serum-starved for 24 h and exposed to solvent or Cpd1 (60 μM) during the last 18 h. Then they were left untreated (−) or stimulated with 20 ng/ml HGF (+), for 10 min. Cell lysates were immunoprecipitated with anti-Met and probed with anti-pTyr or anti-Met antibody. Drug treatment abolished the constitutive or HGF-induced Met tyrosine phosphorylation and induced a reduction of Met expression.\nThe following human medullary thyroid carcinoma (MTC) cell lines were used in this study. The TT cell line derived from a MEN2A-associated MTC characterized by expression of the RET oncogene carrying the mutation C634W. The MZ-CRC-1 cell line derived from MEN2B-associated MTC characterized by expression of the RET oncogene carrying the mutation M918T. TT cells were cultivated in Ham's F12 medium (BioWhittaker, Verviers, Belgium) supplemented with 15% fetal calf serum (FCS) (Life Technologies, Inc., Gaithersburg, Md.) whereas MZ-CRC-1 cells were grown in Dulbecco's modified Eagle's medium (DMEM) (BioWhittaker) supplemented with 10% FCS. The human papillary thyroid carcinoma cell line TPC-1 which was used as a model of Met overexpression, was routinely cultivated in DMEM with 10% FCS. […]\nFor immunoprecipitation experiments, cells were treated with Cpd1 or solvent for the indicated times. […] Protein concentration was determined by the BCA reagent (Pierce). […]"}},
  "note": "“Also recorded” adds a separate entry of the source.",
  "data": [
    {"smiles": "COc1cc2c(cc1OC)/C(=C\\c1ccc(O)cc1)C(=O)N2", "note": "[Cpd 1, (E)-1,3-dihydro-5,6-dimethoxy-3-[(4-hydroxyphenyl)methylene]-2H-indol-2-one]", "values": [
      {"measurement": "Transformed morphologic phenotype", "setting": "[1]", "value": "Reversion of the transformed morphologic phenotype"},
      {"measurement": "Tyrosine phosphorylation of Ret receptor", "setting": "Ret/MEN2B(M918T)", "value": "dose-dependent inhibition"},
      {"measurement": "Ret receptor expression", "setting": "Ret/MEN2B(M918T); highest concentrations", "value": "reduced expression"},
      {"measurement": "Met expression", "setting": "Met; TPC-1 cells", "value": "reduction"},
      {"measurement": "HGF-induced Met tyrosine phosphorylation", "setting": "Met; TPC-1 cells serum-starved, 60 μM for 18 h, 20 ng/ml HGF 10 min", "value": "abolished"},
      {"measurement": "Constitutive Met tyrosine phosphorylation (autophosphorylation)", "setting": "Met; TPC-1 cells, 72 h", "value": "dose-dependent inhibition; also recorded: abolished"}
    ]}
  ]
}
